Results published in US7563822B2, “Agents for the prevention or treatment of renal diseases” (Kissei Pharmaceutical Co., Ltd., priority 2002, dated 2009).

Assays:
[1] = system: Normal human mesangial cells; experiment: Inhibitory effect on human FXa-induced human mesangial cell proliferation (DNA amount by fluorescence); type: cell-based; conditions: for Fluorescence intensity: FXa 20 nM, 111 hours culture
Experimental: Normal human mesangial cells were seeded at 10000 cells/200 μL of Mesangial cell growth medium/well in 96-well plates, and cultured in CO2 incubator (37° C., O2:CO2=95:5). One day after seeding, cells were rinsed with Mesangial cell basal medium containing 0.5% bovine serum albumin (not containing growth factors), and then replaced the medium with Mesangial cell basal medium containing 0.5% bovine serum albumin (not containing growth factors) which was containing human activated coagulation factor X (hereinafter referred to as FXa; Calbiochem) and a test compound of certain concentrations, and cultured for 111 hours in CO2 incubator (37° C., O2:CO2=95:5). After cultivation, cells were rinsed with Hank's balanced salt solution at 250 μL/well, and frozen preservation of the cells at −30° C. was carried out until the measurement of the amount of DNAs for every plate. For measurement of the amount of DNAs, fluorescence intensity (measurement condition: excitation 480 nm; emission 520 nm) was estimated using Cell Proliferation Assay Kit (Molecular Probe). […] In addition, it is shown that * in the Table has a significant difference (p<0.05) compared with the group which was added FXa alone.

ICR mice = experiment: Acute toxicity test, tail vein administration; type: in vivo; conditions: male ICR mice, 24 hours
Experimental: Male ICR mice aged 7 weeks (SLC) were divided into several groups consisting of 5 mice. […] The solution was administered through the tail vein at an infusion rate of 1 mL/minute. Observations were performed at constant interval, and the survival rate was judged for 24 hours.

db/db mice [2] = experiment: Inhibitory effect on development of diabetic nephropathy in db/db mice (urine albumin/creatinine ratio); type: in vivo; conditions: 100 mg/kg orally twice a day for 10 weeks
Experimental: Six weeks old male db/db mice (20 individuals) and non-diabetic type db/+m mice (10 individuals) were used. db/db Mice were divided into two groups (each 10 individuals), a test compound suspended in a 0.5% methylcellulose solution was orally administrated at 100 mg/kg to one group (test compound group) twice a day. On the other hand, a 0.5% methylcellulose solution alone was orally administrated to another group (control group) and db/+m mice twice a day. After continuing administration for 10 weeks, urine collection was performed for each mouse using a metabolism cage for 24 hours. Insoluble substances in collected urine samples were removed by centrifugal separation. The urine albumin/creatinine ratio which can be obtained by rectifying the urine albumin concentration by the urine creatinine concentration was evaluated as the index of the urine protein excretion. In addition, the urine albumin/creatinine ratio was calculated based on the formula below. Urine albumin/creatinine ratio=Urine albumin concentration/Urine creatinine concentration Urine albumin concentration was measured using a Murine Microalbuminurea ELISA Kit (Exocell Icc.), and urine creatinine concentration was measured using a commercial kit for creatinine (Wako). […] In addition, it is shown that * in the Table has a significant difference (p<0.05) compared with control group.

db/db mice [3] = experiment: Inhibitory effect on hypercoagulable state in db/db mice (plasma TAT level); type: in vivo; conditions: 100 mg/kg orally, one hour after administration
Experimental: Thirty two weeks old male db/db mice (11 individuals) and wild type +m/+m mice (6 individuals) were used. db/db Mice were divided into two groups, a 0.5% methylcellulose solution containing a test compound at 100 mg/kg was orally administrated to one group (test compound group, 6 individuals). On the other hand, a 0.5% methylcellulose solution alone was orally administrated to another group (control group, 5 individuals) and +m/+m mice. One hour after administration, mice were anesthetized with diethyl ether. […] Plasma thrombin-antithrombin III complex (TAT) level was measured using an EIA (enzyme immunoassay) kit (Dade behring). […] In addition, it is shown that * in the Table has a significant difference (p<0.05) compared with control group.

CS(=O)(=O)c1ccccc1-c1ccc(CCNS(=O)(=O)c2cc(C(=N)N)ccc2O)c(OCC(=O)O)c1.Cl [Compound 33, [4-[2-(5-Carbamimidoyl-2-hydroxybenzenesulfonylamino)-ethyl]-2′-methanesulfonoylbiphenyl-3-yloxy]acetic acidhydrochloride]
Inhibition of human FXa-induced mesangial cell proliferation (in words) ([1]; FXa-induced human mesangial cells): inhibited human FXa-induced mesangial cell proliferation concentration-dependently
Fluorescence intensity ([1]; test compound 1 μM, FXa alone 227.0, no FXa 186.8): 206.2
Fluorescence intensity ([1]; test compound 10 μM, * p<0.05 vs FXa alone (227.0)): 178.3*
Number of death (ICR mice; Method B: 100 mg/10 mL/kg): 0/5

CS(=O)(=O)c1ccccc1-c1ccc(CCNS(=O)(=O)c2cc(C(=N)NO)ccc2O)c(OCC(=O)O)c1 [Compound 47, [4-[2-[2-Hydroxy-5-(N-hydroxycarbamimidoyl)benzenesulfonylamino]ethyl]-2′-methanesulfonylbiphenyl-3-yloxy]acetic acid]
Number of death (ICR mice; Method A: 50 mg/10 mL/kg): 0/5
Number of death (ICR mice; Method B: 100 mg/10 mL/kg): 0/5

CCCCOC(=O)COc1cc(-c2ccccc2S(C)(=O)=O)ccc1CCNS(=O)(=O)c1cc(C(=N)NO)ccc1O.Cl [Compound 48, n-Butyl [4-[2-[2-Hydroxy-5-(N-hydroxycarbamimidoyl)-benzenesulfonylamino]ethyl]-2′-methanesulfonylbiphenyl-3-yloxy]acetate hydrochloride]
Inhibition of urine albumin excretion (in words) (db/db mice [2]): inhibited urine albumin excretion significantly
Urine albumin/creatinine ratio (db/db mice [2]; 24 hours urine, * p<0.05 vs control group (0.386)): 0.202*
Effect on plasma TAT level / hypercoagulable state (in words) (db/db mice [3]): decreased plasma TAT level significantly
Plasma thrombin-antithrombin III complex level (db/db mice [3]; * p<0.05 vs control group (69.25)): 8.31*
